Some test systems named below: EKVX NSCLC; HOP-62 NSCLC; HT29 colon; MALME-3M melanoma; MCF7 breast; MOLT-4 leukemia; SF-539 CNS; SK-OV-3 ovarian; KM12 colon; SR leukemia.
Common to all, as to experiment: NCI-60 cell line screen, 48 h

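48-hour exposure; five concentrations; linearly interpolated endpoints. Abbreviation: GI50, concentration required for 50% inhibition of growth. TGI is the concentration that stops growth completely.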 A value given as a limit tells only on which side of the number the result lay.

The values below come from PubChem BioAssay (NCI).

As to `CC(C)CCc1c(Cl)nc(Cl)nc1Cl`, the TGI with EKVX NSCLC is 63.2 µM; in the test on HOP-62 NSCLC it was 30.4 µM; in the test with HT29 colon, 28.9 µM; in the test on MALME-3M melanoma, 50.7 µM; in the test on MCF7 breast it was 40.7 µM; in the test on MOLT-4 leukemia, over 100 µM. The TGI with SF-539 CNS worked out at 56.5 µM; in the test with SK-OV-3 ovarian, 37.6 µM.
Regarding `O=C1C(=O)c2ccccc2C(O)=C1CCCCCCCCC1CCCCC1`, the TGI with HOP-62 NSCLC was found to be 36.7 µM; with HT29 colon, 31 µM; with KM12 colon, 23.1 µM; in the test with MALME-3M melanoma, 10.2 µM; with MCF7 breast, 19.4 µM; with MOLT-4 leukemia it was 12.3 µM. Besides, the TGI turned out to be 22.4 µM with SF-539 CNS, 54.4 µM in the test with SK-OV-3 ovarian and 54.9 µM in the test on SR leukemia.
In the case of `CC(=O)c1c[nH]cc1CO`, the TGI with HOP-62 NSCLC, in the test on KM12 colon, in the test on MALME-3M melanoma, with MCF7 breast, in the test with MOLT-4 leukemia and in the test with SF-539 CNS was over 10 µM in each case. Besides, the TGI in the test on SK-OV-3 ovarian and in the test on SR leukemia was over 10 µM each time.
Consider `C/C=C/C=C\C1OC(O)([C@H](CC)C(=O)NC/C=C/C=C(\C)[C@H](OC)C(C)C2OC(\C=C/C=C/C=C(\C)C(=O)c3c(O)ccn(C)c3=O)[C@H](O)[C@@H]2O)C(O)C(O)C1(C)C` (stereo not given in full), for which the TGI in the test with EKVX NSCLC, in the test with HOP-62 NSCLC, in the test on HT29 colon, in the test with KM12 colon, with MCF7 breast and in the test with MOLT-4 leukemia was over 100 µM each time. The TGI in the test on SF-539 CNS and in the test on SK-OV-3 ovarian was over 100 µM throughout.
As for `O=C1/C(=C/c2ccc(Cl)cc2)COc2ccc(O)c(O)c21`, the GI50 in the test on EKVX NSCLC was 1.49 µM; in the test with HT29 colon it was 1.92 µM; in the test with KM12 colon, 1.36 µM; in the test with MALME-3M melanoma it was 1.47 µM; in the test on MCF7 breast it was 0.332 µM; with MOLT-4 leukemia, 0.618 µM. In addition, the values for the GI50 in the test on SF-539 CNS and in the test with SK-OV-3 ovarian were 0.44 µM and 2.49 µM, respectively. The TGI in the test with EKVX NSCLC is 3.19 µM; in the test with HT29 colon, 3.98 µM; in the test with KM12 colon, 3.31 µM; in the test on MALME-3M melanoma, 3.47 µM; with MCF7 breast, 2.15 µM; with MOLT-4 leukemia, over 100 µM. Further, the TGI in the test with SF-539 CNS was 1.87 µM; in the test with SK-OV-3 ovarian, over 100 µM.
Regarding `COc1ccc2nc(C)cc(Nc3ccccc3O)c2c1`, the GI50 is 49.3 µM with HOP-62 NSCLC; 23.9 µM in the test with HT29 colon; 35.9 µM in the test with KM12 colon; 27.3 µM with MALME-3M melanoma; 20.5 µM in the test with MCF7 breast; 24.8 µM with MOLT-4 leukemia. The results for the GI50 in the test with SF-539 CNS and with SK-OV-3 ovarian were 19.2 µM and over 100 µM, respectively. In addition, the TGI was over 100 µM with HOP-62 NSCLC; over 100 µM in the test on HT29 colon; over 100 µM with KM12 colon; 61.2 µM in the test on MALME-3M melanoma; 51.2 µM in the test on MCF7 breast; 78.6 µM in the test with MOLT-4 leukemia. Moreover, the TGI in the test on SF-539 CNS is 42.2 µM; in the test on SK-OV-3 ovarian it was over 100 µM.
In the case of `CCOC(=O)C#Cc1c(CC(=O)OCC)nnn1[C@H]1O[C@@H](CO)[C@@H]2OC(C)(C)O[C@@H]21`, the GI50 in the test with EKVX NSCLC is 17.3 µM; with HOP-62 NSCLC it was 18.2 µM; in the test with HT29 colon, 2.13 µM; with KM12 colon, 16.4 µM; in the test on MALME-3M melanoma it was 2 µM; with MCF7 breast, 3.15 µM. In addition, the results for the GI50 with MOLT-4 leukemia and in the test with SK-OV-3 ovarian were 2.79 µM and 37.3 µM, respectively. Further, the TGI with EKVX NSCLC was determined as 35.1 µM; with HOP-62 NSCLC, 34.2 µM; in the test with HT29 colon, 4.3 µM; in the test with KM12 colon, 32.7 µM; in the test on MALME-3M melanoma, 4.16 µM; in the test with MCF7 breast, 14.9 µM. In addition, the TGI in the test with MOLT-4 leukemia was 7.73 µM; in the test with SK-OV-3 ovarian, over 100 µM.
`CC1/C(=N/Nc2ccc([N+](=O)[O-])cc2)CC2C3(C)CCC2(C(C)C(=O)O)C(=O)C13` (stereo not given): the GI50 was 3.36 µM with EKVX NSCLC; 95 µM in the test on HOP-62 NSCLC; 6.18 µM with HT29 colon; 11.3 µM with KM12 colon; over 100 µM in the test with MALME-3M melanoma; 7.17 µM with MCF7 breast. Also, the GI50 is 22.5 µM with MOLT-4 leukemia, 5.44 µM in the test with SF-539 CNS and over 100 µM in the test with SK-OV-3 ovarian. Besides, the TGI in the test with EKVX NSCLC, in the test on HOP-62 NSCLC, in the test with HT29 colon, with KM12 colon, with MALME-3M melanoma and in the test on MCF7 breast was over 100 µM in each case. The TGI in the test with MOLT-4 leukemia, with SF-539 CNS and in the test with SK-OV-3 ovarian was over 100 µM each time.
On to `N=C(N)c1ccc(-c2ccc(-c3cccs3)s2)nc1`, for which the GI50 with HOP-62 NSCLC was 1.94 µM; in the test with HT29 colon, 1.6 µM; with KM12 colon it was 1.88 µM; with MALME-3M melanoma, 1.96 µM; in the test on MCF7 breast it was 1.32 µM; in the test with MOLT-4 leukemia, 1.96 µM. Further, the values for the GI50 in the test with SF-539 CNS, in the test with SK-OV-3 ovarian and with SR leukemia were 1.57 µM, 1.56 µM and 1.27 µM, respectively. The TGI amounted to 5.17 µM in the test with HOP-62 NSCLC; 3.83 µM in the test with HT29 colon; 3.6 µM with KM12 colon; 3.57 µM with MALME-3M melanoma; 3.3 µM in the test on MCF7 breast; 4.13 µM with MOLT-4 leukemia. The TGI in the test with SF-539 CNS is 3.08 µM; in the test with SK-OV-3 ovarian, 5.88 µM; in the test with SR leukemia it was 5.47 µM.
Take `O=C(CCCCCCC(=O)Nc1ccc2c(c1)/C(=C/c1ccc[nH]1)C(=O)N2)NO`: the GI50 in the test on HOP-62 NSCLC is 0.353 µM; in the test with HT29 colon, 0.506 µM; in the test on KM12 colon it was 0.894 µM; in the test with MALME-3M melanoma, 0.0758 µM; in the test on MCF7 breast, 0.437 µM; with MOLT-4 leukemia, 0.289 µM. Moreover, the GI50 with SF-539 CNS is 0.603 µM; in the test on SK-OV-3 ovarian, 0.341 µM; in the test on SR leukemia it was 0.253 µM. Also, the TGI in the test with HOP-62 NSCLC was 4.49 µM; with HT29 colon it was 8.51 µM; in the test with KM12 colon, over 23.2 µM; in the test with MALME-3M melanoma, 35.4 µM; in the test on MCF7 breast, over 69.6 µM; with MOLT-4 leukemia, over 100 µM. Besides, the TGI with SF-539 CNS is 16 µM; in the test with SK-OV-3 ovarian, 3.85 µM; in the test with SR leukemia, over 100 µM.
